Data as given in PubChem BioAssay (NCI).
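Five compound concentrations were applied to cells in 96-well plates for 48 hours; endpoints were derived by simple linear interpolation of the resulting dose-response curve. The concentration for full growth arrest is given as TGI.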 Where a SMILES comes first, the peptide text is derived from it. [ ]: non-standard residue; d: D form. The star is where a group is joined. ξ: configuration not given here. NMeY = CN[C@@H](Cc1ccc(O)cc1)C(=O)O; Cbz = O=C(OCc1ccccc1)*; ξA = CC(N)C(=O)O

Experiments:
Assay in all cases: growth of human tumour cells (NCI), 48 h
K-562 leukemia = tested on: K-562 leukemia
SNB-19 CNS = tested on: SNB-19 CNS
IGROV1 ovarian = tested on: IGROV1 ovarian
M14 melanoma = tested on: M14 melanoma
MDA-MB-435 = tested on: MDA-MB-435
NCI-H23 lung = tested on: NCI-H23 lung
CAKI-1 renal = tested on: CAKI-1 renal
EKVX NSCLC = tested on: EKVX NSCLC
SK-MEL-28 melanoma = tested on: SK-MEL-28 melanoma
SR leukemia = tested on: SR leukemia

Compound	TGI (K-562 leukemia)	TGI (SNB-19 CNS)	TGI (IGROV1 ovarian)	TGI (M14 melanoma)	TGI (MDA-MB-435)	TGI (NCI-H23 lung)	TGI (CAKI-1 renal)	TGI (EKVX NSCLC)	TGI (SK-MEL-28 melanoma)	TGI (SR leukemia)
CCCCn1cc(C(=O)O)c(=O)c2c3sccc3ccc21	> 100 µM	> 100 µM	> 100 µM	> 100 µM	> 100 µM	> 100 µM	> 100 µM	> 100 µM	> 100 µM	–
Cn1c(N)c(/C=N/NC(=O)CC#N)c(=O)n(C)c1=O	–	> 100 µM	> 100 µM	> 100 µM	> 100 µM	–	> 100 µM	> 100 µM	> 100 µM	> 100 µM
O=C1c2ccccc2S(=O)(=O)c2ccccc21	> 100 µM	> 100 µM	> 100 µM	> 100 µM	> 100 µM	> 100 µM	> 100 µM	> 100 µM	> 100 µM	–
Cc1ncc([N+](=O)[O-])n1CCN=[N+]=[N-]	> 100 µM	> 100 µM	> 100 µM	> 100 µM	> 100 µM	> 100 µM	> 100 µM	> 100 µM	> 100 µM	> 100 µM
Cc1cccc(NC(=O)CC(=O)N2N=C(N3c4ccccc4Sc4ccccc43)CC2c2ccccc2)c1 (configuration not stated)	> 100 µM	> 100 µM	> 100 µM	> 100 µM	> 100 µM	> 100 µM	–	> 100 µM	> 100 µM	> 100 µM
C=C(CCOC)CCC1CCCCC(=C)C1=O (configuration not stated)	> 100 µM	> 100 µM	> 100 µM	> 100 µM	> 100 µM	> 100 µM	> 100 µM	> 100 µM	> 100 µM	> 100 µM
Cc1ccc(Nc2nc(=O)[nH]c(=O)[nH]2)cc1N	–	> 100 µM	> 100 µM	> 100 µM	> 100 µM	> 100 µM	> 100 µM	> 100 µM	> 100 µM	> 100 µM
COc1cc(C(=O)Nc2nnc(S(N)(=O)=O)s2)cc(OC)c1OC	> 100 µM	> 100 µM	–	> 100 µM	> 100 µM	> 100 µM	> 100 µM	> 100 µM	> 100 µM	> 100 µM
O=c1c(Cc2ccc(Cl)cc2)nnc2sc(-c3ccc([N+](=O)[O-])cc3)nn12	> 100 µM	> 100 µM	> 100 µM	39.2 µM	58.5 µM	54.5 µM	> 100 µM	64.4 µM	–	60.4 µM
CN(C)c1ccc(/C=C(\NC(=O)c2ccccc2)C(=O)Nc2ccccc2C(=O)NN2C(=O)CSC2c2ccc(N(C)C)cc2)cc1 (configuration not stated)	> 100 µM	> 100 µM	> 100 µM	> 100 µM	> 100 µM	> 100 µM	> 100 µM	> 100 µM	> 100 µM	> 100 µM
CCCCC[C@H](O)[C@H](C)C=C1SCCCS1	> 100 µM	> 100 µM	> 100 µM	> 100 µM	> 100 µM	> 100 µM	> 100 µM	> 100 µM	> 100 µM	> 100 µM
COc1cn2c(cc1=O)COc1ccc(-c3ccccc3)cc1-2	> 100 µM	> 100 µM	> 100 µM	> 100 µM	> 100 µM	> 100 µM	> 100 µM	> 100 µM	> 100 µM	> 100 µM
CCCCCCCCCCCCOC1C(COCCN2CCCC2)OC2OC(C)(C)OC21 (configuration not stated)	2.7 µM	10.2 µM	3.1 µM	3.25 µM	3.14 µM	3.48 µM	3.04 µM	10.2 µM	3.12 µM	2.91 µM
CNc1ccc2nc(-c3ccc(OC(=O)N(C)C)cc3)cn2c1	49.7 µM	29.6 µM	31.8 µM	36.9 µM	30.7 µM	40.4 µM	44.7 µM	33.4 µM	> 100 µM	44.1 µM
O=C1c2ccccc2NC2C(O)c3ccccc3N12 (configuration not stated)	> 100 µM	> 100 µM	> 100 µM	> 100 µM	31.9 µM	84.3 µM	> 100 µM	> 100 µM	–	> 100 µM
COc1ccc(Cn2nc(OCc3ccccn3)c3cc([N+](=O)[O-])ccc32)cc1	> 100 µM	> 100 µM	> 100 µM	> 100 µM	> 100 µM	> 100 µM	> 100 µM	–	> 100 µM	> 100 µM
O=S1(=O)NNC(=NCc2ccc(F)cc2)c2ccccc21	> 73.1 µM	> 100 µM	> 100 µM	> 100 µM	> 100 µM	> 100 µM	> 100 µM	> 100 µM	> 100 µM	> 68.8 µM
Cc1cc(S(=O)(=O)Nc2n[nH]c(Nc3ccccc3)n2)c(S)cc1Cl	> 10 µM	> 10 µM	> 10 µM	> 10 µM	> 10 µM	> 10 µM	> 10 µM	> 10 µM	> 10 µM	–
N#Cc1c(=O)c2cccnc2n2c1[nH]c1ccccc12	> 100 µM	> 100 µM	> 100 µM	> 100 µM	> 100 µM	> 100 µM	> 100 µM	> 100 µM	> 100 µM	> 100 µM
OC(CC(c1ccccc1)c1ccc(Cl)cc1)c1ccc(Cl)cc1 (configuration not stated)	> 100 µM	> 100 µM	> 100 µM	> 100 µM	91.5 µM	87.8 µM	> 100 µM	74.7 µM	> 100 µM	73.5 µM
Cc1ccc2ccccc2c1CC1S(=O)(=O)OCCOS1(=O)=O	34 µM	25.9 µM	–	28.7 µM	22 µM	41 µM	24.4 µM	29.9 µM	32.8 µM	24.9 µM
CCCCCCCCCCCCC(=O)NCC(=O)NC(Cc1ccccc1)C(=O)Oc1ccc([N+](=O)[O-])cc1 (configuration not stated)	–	> 100 µM	> 100 µM	> 100 µM	> 100 µM	> 100 µM	> 100 µM	> 100 µM	–	> 100 µM

Compound	TGI (K-562 leukemia)	TGI (SNB-19 CNS)	TGI (IGROV1 ovarian)	TGI (M14 melanoma)	TGI (MDA-MB-435)	TGI (NCI-H23 lung)	TGI (CAKI-1 renal)	TGI (EKVX NSCLC)	TGI (SK-MEL-28 melanoma)	TGI (SR leukemia)
O=C1/C(=C/c2ccccc2S)N=C(c2ccccc2)N1c1ccc2c(c1)Sc1cc(N3C(=O)/C(=C/c4ccccc4S)N=C3c3ccccc3)ccc1N2	51 µM	30.4 µM	29.1 µM	35 µM	48.9 µM	–	41.7 µM	41.6 µM	44.5 µM	40.4 µM
O=C(Nc1cccc2nsnc12)c1cc2c(cc1Cl)Sc1nccn1S2(=O)=O	> 44.5 µM	24.8 µM	46.6 µM	42.5 µM	36.5 µM	25.3 µM	25.7 µM	11.1 µM	8.86 µM	> 21.8 µM
O=C(C[C@@H]1NCCC[C@H]1O)Cn1cnc2cc(Br)c(Cl)cc2c1=O	0.0727 µM	0.484 µM	0.158 µM	0.0821 µM	0.076 µM	0.11 µM	0.313 µM	0.803 µM	0.119 µM	–
COc1ccc(C[C@@H](C(=O)NCC(N)=O)N(C)C(=O)[C@@H]2CCCN2C(=O)[C@H](CC(C)C)NC(=O)C(C)NC(=O)OCc2ccccc2)cc1 (some centres not stated) (Cbz-[ξA]LP[NMeY](Me)G-NH2)	> 100 µM	> 100 µM	> 100 µM	> 100 µM	> 100 µM	> 100 µM	> 100 µM	> 100 µM	> 100 µM	> 100 µM
O=C1CCSSCCC(=O)Nc2ccccc2N1	> 100 µM	> 100 µM	> 100 µM	> 100 µM	> 100 µM	> 100 µM	> 100 µM	> 100 µM	> 100 µM	> 100 µM
COc1ccc(/C=N/Nc2[nH]c(=S)nc3[nH]ncc23)cc1	> 100 µM	59.2 µM	68.2 µM	> 100 µM	> 100 µM	> 100 µM	> 100 µM	> 100 µM	> 100 µM	> 100 µM
O=C1C/C(=C\O)C(=O)c2ccccc2N1	> 100 µM	> 100 µM	> 100 µM	> 100 µM	> 100 µM	> 100 µM	> 100 µM	> 100 µM	> 100 µM	> 100 µM
CN(C)c1ccc(-c2nc(-c3cc4c(ccc5ccccc54)oc3=O)cs2)cc1	> 100 µM	> 100 µM	> 100 µM	> 100 µM	> 100 µM	–	> 100 µM	> 100 µM	> 100 µM	> 100 µM
CC(=O)N(C(C)=O)n1c(Cc2ccc(Cl)cc2)nn(C(C)=O)c1=O	> 100 µM	> 100 µM	> 100 µM	> 100 µM	> 100 µM	> 100 µM	–	> 100 µM	> 100 µM	> 100 µM
O=C(Cc1nc2ccc(C(=O)c3ccccc3)cc2[nH]c1=O)C(=O)Nc1ccccc1[N+](=O)[O-]	> 100 µM	–	> 100 µM	> 100 µM	> 100 µM	> 100 µM	> 100 µM	> 100 µM	> 100 µM	> 100 µM
C=CCc1c(O)c2ccccc2[nH]c1=O	> 100 µM	> 100 µM	> 100 µM	–	> 100 µM	> 100 µM	> 100 µM	> 100 µM	> 100 µM	> 100 µM
C#CC(C)(C)Oc1cc(OC)c2c(=O)c3ccccc3n(C)c2c1	55.5 µM	93.8 µM	45 µM	–	26.9 µM	–	–	74.5 µM	42.6 µM	14.9 µM
[N-]=[N+]=NC1(c2ccccc2)C(=O)Nc2ccccc2C1=O (configuration not stated)	> 100 µM	> 100 µM	> 100 µM	74.6 µM	44.1 µM	> 100 µM	> 100 µM	–	> 100 µM	> 100 µM
O=C1c2cc([N+](=O)[O-])ccc2NC2C(O)c3ccccc3N12 (configuration not stated)	87.8 µM	> 100 µM	75.3 µM	> 100 µM	> 100 µM	72.5 µM	54 µM	43 µM	–	56.2 µM
CCCCCCCCCCCCCCCCOCC(CC(F)(F)P(=O)(O)O)OC(C)=O (configuration not stated)	> 50 µM	> 50 µM	> 50 µM	> 50 µM	> 50 µM	> 50 µM	> 50 µM	> 50 µM	> 50 µM	–
O=C1c2cc(Cl)ccc2-n2c(noc2=O)C2CSCN12 (configuration not stated)	> 100 µM	> 100 µM	> 100 µM	> 100 µM	> 100 µM	–	> 100 µM	> 100 µM	> 100 µM	> 100 µM
CC1CN=C(c2cccc(OCc3ccc(COc4cccc(C5=NCC(C)N5)c4)cc3)c2)N1 (configuration not stated)	> 100 µM	> 100 µM	> 100 µM	> 100 µM	> 100 µM	> 100 µM	> 100 µM	> 100 µM	> 100 µM	–
COC(=O)Cc1c(C2=Nc3ccccc3C2(O)CC(=O)OC)[nH]c2ccccc12 (configuration not stated)	> 100 µM	> 100 µM	> 100 µM	> 100 µM	> 100 µM	> 100 µM	71 µM	> 100 µM	> 100 µM	–
COc1cc(S(=O)(=O)Nc2nc(-c3ccc(N4C(=O)/C(=C/c5ccccc5)N=C4c4ccccc4)cc3)cs2)ccc1Cl	> 100 µM	> 100 µM	> 100 µM	> 100 µM	> 100 µM	80.4 µM	> 100 µM	–	> 100 µM	> 100 µM
CCOC(=O)C1C/C(C)=C(/C)SCCCS1 (configuration not stated)	> 100 µM	> 100 µM	> 100 µM	> 100 µM	> 100 µM	> 100 µM	–	> 100 µM	> 100 µM	> 100 µM
O=C1/C(=C/c2cccc(Oc3ccccc3)c2)N=C(c2ccccc2)N1c1nc2ccc(Sc3ccccc3)cc2[nH]1	> 100 µM	> 100 µM	> 100 µM	74.8 µM	33.1 µM	> 100 µM	> 100 µM	> 100 µM	> 100 µM	–
Cc1ccc(-c2cc(-c3ccc(Cl)cc3)nc(/N=C3\C(=O)N(CN4CCCCC4)c4ccc(Cl)cc43)n2)cc1	> 100 µM	34.7 µM	34.2 µM	46.6 µM	42.9 µM	51.5 µM	64.7 µM	> 100 µM	> 100 µM	–
